Test results: US20250326794A1, “ANTI-CANCER LEUCINE-RICH PEPTIDES AND USES THEREOF” (KING'S COLLEGE LONDON, priority 2019, published 2025)

Experiments:
[1] = test system: HEK293T (human embryonic kidney cell); experiment: cells; conditions: 72 h
Description: (§1) HMLER (human mammary endothelial cancer cells), HMLER-shEcad (human mammary endothelial cancer stem cells), and MCF-10A (healthy human mammary endothelial) cells were maintained in Mammary Epithelial Cell Growth Medium (MEGM) with supplements and growth factors: bovine pituitary extract (BPE), hydrocortisone, human epidermal growth factor (hEGF), insulin, and gentamicin/amphotericin-B. HEK293T (human embryonic kidney cell), and U2OS (Homo sapiens bone osteosarcoma) cells were maintained in Dulbecco's Modified Eagle's Medium (DMEM) with a final concentration of 10% fetal bovine serum. The cells were grown in T75 flask at 310 K in a humidified atmosphere containing 5% CO2.
(§2) The colourimetric MTT (3-(4,5-dimethylthiazol-2-yl)-2,5-diphenyltetrazolium bromide) assay was used to determine the toxicity of the anticancer peptides and conventional anticancer drugs. 5×10^3 cells were seeded in each well of a 96-well microplate. The cells were incubated overnight. Elevated concentrations of the compounds (0, 0.1, 0.2, 0.4, 0.8, 1.6, 3.1, 6.3, 12.5, 25, 50 and 100 μM) were added and incubated for 72 hr with a total volume 200 μL. The stock solutions of the compounds were prepared as 5 mM solutions in DMSO and diluted using media or in pure water. The final concentration of DMSO in each well was either 0.5% or 0% and this amount was present in the untreated control. After 72 hr, 20 μL of a 4 mg/mL solution of MTT in PBS was added to each well, and the plate was incubated for an additional 4 hr. The MEGM/MTT mixture was aspirated and 100 μL of DMSO was added to dissolve the resulting purple formazan crystals. The absorbance of the solutions in each well was read at 550 nm wavelength. Absorbance values were normalized to either DMSO-containing or non DMSO-containing control wells and plotted as concentration of test compound versus % cell viability. IC50 values were interpolated from the resulting dose dependent curves.
(§3) The peptides were screened against several different human cell lines and their cytotoxicity were determined. Cell lines utilised include MCF-10A (human breast epithelial cell), HMLER (human breast cancer bulk cell), HMLER-shEcad (human breast cancer stem cell), HEK293T (human embryonic kidney cell), and U2OS (human bone osteosarcoma).

[2] = test system: HMLER (human breast cancer bulk cell); experiment: cells; conditions: 72 h
Description: as §1, §2, §3

[3] = test system: HMLER-shEcad (human breast cancer stem cell); experiment: cells; conditions: 72 h
Description: as §1, §2, §3

[4] = test system: U2OS (human bone osteosarcoma); conditions: 72 h
Description: as §1, §2, §3

[5] = Tryptophan fluorescent binding assay, POPC vesicles; conditions: 50 μM peptide, PBS pH 7.4, lipid per peptide
Description: (§4) In brief, 50 μM peptides were fixed and incubated with titrated POPC vesicles (black) or 3POPC/1POPG vesicles (grey) at concentrations of 0, 12.5, 25, 50, 100, 250, 500, 1000, 2500, and 5000 μM in phosphate buffered saline (1×, pH 7.4). The lipid concentration that causes 50% peptide binding was determined using a tryptophan fluorescent binding assay and the values are shown as lipid per peptide.
(§5) The lipids 1-palmitoyl-2-oleoyl-sn-glycero-3-phosphocholine (POPC), 1-palmitoyl-2-oleoyl-snglycero-3-phospho-(1′-rac-glycerol) (POPG) were purchased from Avanti Polar Lipids and dissolved in chloroform. Large unilamellar vesicles (LUVs) were produced by extrusion through 100 nm pore filter using an extruder and filters purchased from Avanti Polar Lipids.
(§6) Peptides (50 μM) and POPC/POPG LUVs (600 μM) were prepared in 10 mM phosphate buffer (pH 7.0). The solutions were incubated and measured after 60 minutes. Excitation was fixed at 280 nm (slit 9 nm) and emission was collected from 300 to 450 nm (slit 9 nm). The spectra were recorded using a Synergy H1 Hybrid Multi-Mode Reader (FIG. 3A) and Cytation™ 5 Cell Imaging Multi-Mode Reader (FIG. 2) from BioTek and were averaged over 3 scans.
(§7) Table 3 illustrates the lipid concentration-induced 50% peptide binding onto a liposome. 50 μM peptide was fixed and incubated with titrated lipid (POPC vesicles or 3POPC/1POPG vesicles) at concentrations of 0, 12.5, 25, 50, 100, 250, 500, 1000, 2500, and 5000 μM in phosphate buffered saline (1×, pH 7.4). The lipid concentration that causes 50% peptide binding was determined using tryptophan fluorescent binding assay and the values are shown as lipid per peptide. †N-terminus is free, C-terminus: —W—NH2.

[6] = Tryptophan fluorescent binding assay, 3POPC/1POPG vesicles; conditions: 50 μM peptide, PBS pH 7.4, lipid per peptide
Description: as §4, §5, §6, §7

[7] = ANTS/DPX liposome leakage assay, POPC vesicles; format: biochemical; conditions: 0.5 mM vesicles; for Peptide Concentration-induced 50% ANTS/DPX leakage at pH 4.8, POPC Vesicle: pH 4.8, lipid per peptide; for Peptide Concentration-induced 50% ANTS/DPX leakage at pH 7.4, POPC Vesicle: pH 7.4, lipid per peptide
Description: (§8) In brief, 0.5 mM POPC vesicles (grey) or POPC:POPG vesicles (ratio 3:1, black) were incubated with peptide concentrations of 0, 0.02, 0.04, 0.08, 0.16, 0.32, 0.64, 1.25, 2.5, 5, 10, and 20 μM in each A) hydrochloric acid-adjusted phosphate buffered saline (1×, pH 4.8) and B) phosphate buffered saline (1×, pH 7.4).
as §5
(§9) 5 mM ANTS (8-aminonaphthalene-1,3,6-trisulfonic acid, disodium salt) and 12.5 mM DPX (p-xylene-bis-pyridinium bromide) were entrapped in 0.1 μm diameter extruded vesicles with lipids. Gel filtration chromatography using a Sephadex G-100 (GE Healthcare Life Sciences Inc) was used to remove external free ANTS/DPX from LUVs with entrapped contents. LUVs were diluted to 0.5 mM and used to measure the leakage activity by addition of aliquots of peptides. Leakage was measured after 3 h incubation. 10% Triton was used as the positive control to measure the maximum leakage of the vesicle. Fluorescence emission spectra were recorded using excitation and emission wavelength of 350 nm and 510 nm for ANTS/DPX using a BioTek Synergy H1 Hybrid Multi-Mode Reader.
(§10) Table 4 illustrates peptide concentration-induced 50% ANTS/DPX liposome leakage. 0.5 mM POPC and 3POPC/1POPG vesicles were fixed and incubated with titrated peptide concentration ([…]) each in phosphate buffered saline (1×, pH 7.4) and hydrochloric acid-adjusted phosphate buffered saline (1×, pH 4.8). The values are shown as lipid per peptide. †N-terminus is free, C-terminus: —W—NH2.

[8] = ANTS/DPX liposome leakage assay, 3POPC/1POPG vesicles; format: biochemical; conditions: 0.5 mM vesicles; for Peptide Concentration-induced 50% ANTS/DPX leakage at pH 4.8, 3POPC/1POPG Vesicle: pH 4.8, lipid per peptide; for Peptide Concentration-induced 50% ANTS/DPX leakage at pH 7.4, 3POPC/1POPG Vesicle: pH 7.4, lipid per peptide
Description: as §8, §5, §9, §10

SMILES	IC50 [1]	IC50 [2]	IC50 [3]	IC50 [4]	Lipid Concentration-induced 50% Peptide Binding, POPC Vesicle [5]	Lipid Concentration-induced 50% Peptide Binding, 3POPC/1POPG Vesicle [6]	Peptide Concentration-induced 50% ANTS/DPX leakage at pH 4.8, POPC Vesicle [7]	Peptide Concentration-induced 50% ANTS/DPX leakage at pH 7.4, POPC Vesicle [7]	Peptide Concentration-induced 50% ANTS/DPX leakage at pH 4.8, 3POPC/1POPG Vesicle [8]	Peptide Concentration-induced 50% ANTS/DPX leakage at pH 7.4, 3POPC/1POPG Vesicle [8]
CC(C)C[C@H](NC(=O)CN)C(=O)N[C@@H](CC(C)C)C(=O)N[C@@H](CCC(=O)O)C(=O)N[C@@H](CC(C)C)C(=O)N[C@@H](CC(C)C)C(=O)N[C@@H](Cc1c[nH]cn1)C(=O)N[C@@H](CC(C)C)C(=O)N[C@@H](CC(C)C)C(=O)N[C@@H](CC(C)C)C(=O)N[C@@H](Cc1c[nH]cn1)C(=O)N[C@@H](C)C(=O)N[C@@H](C)C(=O)NCC(=O)N[C@@H](Cc1c[nH]c2ccccc12)C(N)=O [EHH]	5.9 ± 0.14 µM	25.4 ± 2.76 µM	16.1 ± 3.18 µM	117 ± 7 µM	0.94 L/P	0.69 L/P	386 L/P	1043 L/P	80 L/P	981 L/P
CC(C)C[C@H](NC(=O)CN)C(=O)N[C@@H](CC(C)C)C(=O)N[C@@H](CCC(=O)O)C(=O)N[C@@H](CC(C)C)C(=O)N[C@@H](CC(C)C)C(=O)N[C@@H](Cc1c[nH]cn1)C(=O)N[C@@H](CC(C)C)C(=O)N[C@@H](CC(C)C)C(=O)N[C@@H](CC(C)C)C(=O)N[C@@H](CCCCN)C(=O)N[C@@H](C)C(=O)N[C@@H](C)C(=O)NCC(=O)N[C@@H](Cc1c[nH]c2ccccc12)C(N)=O [EHK]	5.35 ± 0.07 µM	1.35 ± 0.35 µM	0.71 ± 0.13 µM	25 µM	0.56 L/P	0.42 L/P	55 L/P	981 L/P	117 L/P	505 L/P
CC(C)C[C@H](NC(=O)CN)C(=O)N[C@@H](CC(C)C)C(=O)N[C@@H](CCC(=O)O)C(=O)N[C@@H](CC(C)C)C(=O)N[C@@H](CC(C)C)C(=O)N[C@@H](CCCCN)C(=O)N[C@@H](CC(C)C)C(=O)N[C@@H](CC(C)C)C(=O)N[C@@H](CC(C)C)C(=O)N[C@@H](CCC(=O)O)C(=O)N[C@@H](C)C(=O)N[C@@H](C)C(=O)NCC(=O)N[C@@H](Cc1c[nH]c2ccccc12)C(N)=O [EKE]	5.15 ± 0.21 µM	1.8 ± 0.28 µM	1.3 ± 0.14 µM	8 ± 0.71 µM	2.75 L/P	1.63 L/P	75 L/P	738 L/P	438 L/P	657 L/P
CC(C)C[C@H](NC(=O)CN)C(=O)N[C@@H](CC(C)C)C(=O)N[C@@H](CCC(=O)O)C(=O)N[C@@H](CC(C)C)C(=O)N[C@@H](CC(C)C)C(=O)N[C@@H](CCCCN)C(=O)N[C@@H](CC(C)C)C(=O)N[C@@H](CC(C)C)C(=O)N[C@@H](CC(C)C)C(=O)N[C@@H](Cc1c[nH]cn1)C(=O)N[C@@H](C)C(=O)N[C@@H](C)C(=O)NCC(=O)N[C@@H](Cc1c[nH]c2ccccc12)C(N)=O [EKH]	6.65 ± 1.34 µM	2.75 ± 0.07 µM	2.18 ± 0.31 µM	23.8 ± 0.81 µM	0.75 L/P	0.19 L/P	55 L/P	608 L/P	88 L/P	365 L/P
CC(C)C[C@H](NC(=O)CN)C(=O)N[C@@H](CC(C)C)C(=O)N[C@@H](CCC(=O)O)C(=O)N[C@@H](CC(C)C)C(=O)N[C@@H](CC(C)C)C(=O)N[C@@H](CCCCN)C(=O)N[C@@H](CC(C)C)C(=O)N[C@@H](CC(C)C)C(=O)N[C@@H](CC(C)C)C(=O)N[C@@H](CCCCN)C(=O)N[C@@H](C)C(=O)N[C@@H](C)C(=O)NCC(=O)N[C@@H](Cc1c[nH]c2ccccc12)C(N)=O [EKK]	3.35 ± 0.49 µM	1.72 ± 0.21 µM	1.19 ± 0.4 µM	12.2 ± 1.84 µM	1.50 L/P	0.63 L/P	60 L/P	1095 L/P	219 L/P	235 L/P
